According to patent publication US10201531B2, “Indazolyl-oxo-isothiazole compounds” (MOCHIDA PHARMACEUTICAL CO., LTD., priority 2015, dated 2019):

What follows are molecules tested on Nrf2 (assay: Evaluation of Nrf2 activation ability (Nrf2d-LacZ / Keap1 HEK293 reporter, Beta-Glo luminescence)). Details: rated A/B/C, Pharmacological Test Example 1.
Format: cell-based, human
Method: HEK293 cells constantly expressing Nrf2d-LacZ (human Nrf2 degron region fused to LacZ; Hirotsu et al, Genes to Cell, Vol. 16, pp. 406-415 (2011)) and human Keap1 were seeded 7,000 cells/27 μl/well on 384-well plates (Corning 384 Well Flat Clear Bottom White Polystyrene TC-Treated Microplates, Cat. #3707), and cultured overnight at 5% CO2, 37° C. in DMEM medium containing 10% FBS, 100 U/mL penicillin and 100 μg/mL streptomycin. 3 μL/well of a 0.1% DMSO solution of the compound of the invention was added to the cells, which were then cultured for 3 hours at 5% CO2, 37° C. Beta-Glo® reagent (Promega, Beta-Glo Assay System, Cat. #E4740) was added 15 μL/well and incubated for 1 hour at room temperature, and luminescence intensity was measured with a luminometer. Using CDDO-Im as a standard, Nrf2 activation ability was calculated given 100% as the luminescence under stimulus with 100 nM CDDO-Im.

Row | EC50 | Compound
1 | < 1000 nM | [O-][s+]1nc(O)cc1-n1ncc2cc(-c3cccc(F)c3)ccc21 (stereo not shown) [Example 84]
2 | < 1000 nM | COc1ccc(-c2ccc3c(cnn3-c3cc(O)n[s+]3[O-])c2)cn1 (stereo not shown) [Example 86]
3 | 1000 to 5000 nM | [O-][s+]1nc(O)cc1-n1ncc2cc(-c3ccc(N4CCCC4)nc3)ccc21 (stereo not shown) [Example 87]
4 | < 1000 nM | [O-][s+]1nc(O)cc1-n1ncc2cc(-c3ccc(N4CCCCC4)nc3)ccc21 (stereo not shown) [Example 90]
5 | < 1000 nM | Cc1cnc(-c2ccc3c(cnn3-c3cc(O)n[s+]3[O-])c2)cn1 (stereo not shown) [Example 123]
6 | 1000 to 5000 nM | [O-][s+]1nc(O)cc1-n1ncc2cc(-c3ccc(N4CCOCC4)nc3)ccc21 (stereo not shown) [Example 126]
7 | < 1000 nM | [O-][s+]1nc(O)cc1-n1ncc2cc(-c3cncc(N4CCCC4)c3)ccc21 (stereo not shown) [Example 135]
8 | < 1000 nM | CN(C)c1ccc(-c2ccc3c(cnn3-c3cc(O)n[s+]3[O-])c2)cn1 (stereo not shown) [Example 136]
9 | < 1000 nM | CCN1CCOc2cc(-c3ccc4c(cnn4-c4cc(O)n[s+]4[O-])c3)cnc21 (stereo not shown) [Example 143]
10 | < 1000 nM | [O-][s+]1nc(O)cc1-n1ncc2cc(-c3cnc4c(c3)OCCN4C3CC3)ccc21 (stereo not shown) [Example 149]
11 | < 1000 nM | [O-][s+]1nc(O)cc1-n1ncc2cc(-c3cnc4c(c3)OCCN4CC3CC3)ccc21 (stereo not shown) [Example 150]
12 | < 1000 nM | O=C(C1CC1(F)F)N1CCOc2cc(-c3ccc4c(cnn4-c4cc(O)n[s+]4[O-])c3)cnc21 (stereo not shown) [Example 151]
13 | 1000 to 5000 nM | [O-][s+]1nc(O)cc1-n1ncc2cc(-c3cnc4c(c3)OCCN4)ccc21 (stereo not shown) [Example 152]
14 | < 1000 nM | [O-][s+]1nc(O)cc1-n1ncc2cc(-c3cncc(N4CCCCC4)c3)ccc21 (stereo not shown) [Example 153]
15 | < 1000 nM | CN1CCc2cc(-c3ccc4c(cnn4-c4cc(O)n[s+]4[O-])c3)cnc21 (stereo not shown) [Example 158]
16 | < 1000 nM | CC(C)CN1CCOc2cc(-c3ccc4c(cnn4-c4cc(O)n[s+]4[O-])c3)cnc21 (stereo not shown) [Example 160]
17 | < 1000 nM | [O-][s+]1nc(O)cc1-n1ncc2cc(-c3cnc4c(c3)OCCN4CC3CCC3)ccc21 (stereo not shown) [Example 162]
18 | 5000 to 10000 nM | CN1C(=O)CCc2cc(-c3ccc4c(cnn4-c4cc(O)n[s+]4[O-])c3)cnc21 (stereo not shown) [Example 164]
19 | 1000 to 5000 nM | CN1CCOc2ncc(-c3ccc4c(cnn4-c4cc(O)n[s+]4[O-])c3)cc21 (stereo not shown) [Example 165]
20 | < 1000 nM | CN1CCOc2cc(-c3ccc4c(c3)c(Cl)nn4-c3cc(O)n[s+]3[O-])cnc21 (stereo not shown) [Example 169]
21 | 5000 to 10000 nM | Cn1cc(-c2ccc3c(cnn3-c3cc(O)n[s+]3[O-])c2)ccc1=O (stereo not shown) [Example 171]
22 | < 1000 nM | COCCN1CCOc2cc(-c3ccc4c(cnn4-c4cc(O)n[s+]4[O-])c3)cnc21 (stereo not shown) [Example 172]
23 | < 1000 nM | COc1cc(-c2ccc3c(cnn3-c3cc(O)n[s+]3[O-])c2)cnc1N(C)C (stereo not shown) [Example 173]
24 | < 1000 nM | CN1CCOc2ccc(-c3ccc4c(cnn4-c4cc(O)n[s+]4[O-])c3)nc21 (stereo not shown) [Example 178]
25 | < 1000 nM | CN1CCOc2nc(-c3ccc4c(cnn4-c4cc(O)n[s+]4[O-])c3)ccc21 (stereo not shown) [Example 179]
26 | < 1000 nM | CN1CCOc2cc(-c3ccc4c(cnn4-c4cc(O)n[s+]4[O-])c3)c(C#N)nc21 (stereo not shown) [Example 184]

More lines, now with the values behind:

Row | Compound | EC50
27 | [O-][s+]1nc(O)cc1-n1ncc2cc(-c3ccccc3F)ccc21 (stereo not shown) [Example 83] | < 1000 nM
28 | [O-][s+]1nc(O)cc1-n1ncc2cc(-c3ccc(F)cc3)ccc21 (stereo not shown) [Example 85] | < 1000 nM
29 | [2H]c1cccc(-c2ccc3c(cnn3-c3cc(O)n[s+]3[O-])c2)n1 (stereo not shown) [Example 89] | < 1000 nM
30 | [O-][s+]1nc(O)cc1-n1ncc2c(-c3cccnc3)cccc21 (stereo not shown) [Example 92] | 1000 to 5000 nM
31 | [O-][s+]1nc(O)cc1-n1ncc2c(C3=CCC(F)(F)CC3)cccc21 (stereo not shown) [Example 93] | 1000 to 5000 nM
32 | [O-][s+]1nc(O)cc1-n1ncc2c(C3=CCOCC3)cccc21 (stereo not shown) [Example 95] | 5000 to 10000 nM
33 | COc1cc(-c2cccc3c2cnn3-c2cc(O)n[s+]2[O-])ccn1 (stereo not shown) [Example 97] | 1000 to 5000 nM
34 | [O-][s+]1nc(O)cc1-n1ncc2c(-c3ccc(C4CC4)nc3)cccc21 (stereo not shown) [Example 98] | 1000 to 5000 nM
35 | Cc1cncc(-c2cccc3c2cnn3-c2cc(O)n[s+]2[O-])c1 (stereo not shown) [Example 100] | 1000 to 5000 nM
36 | Cn1cc(-c2cccc3c2cnn3-c2cc(O)n[s+]2[O-])cn1 (stereo not shown) [Example 101] | 1000 to 5000 nM
37 | [O-][s+]1nc(O)cc1-n1ncc2ccc(C3=CCC(F)(F)CC3)cc21 (stereo not shown) [Example 102] | 1000 to 5000 nM
38 | [O-][s+]1nc(O)cc1-n1ncc2ccc(C3=CCOCC3)cc21 (stereo not shown) [Example 103] | 1000 to 5000 nM
39 | CC(C)(C)OC(=O)N1CC=C(c2ccc3cnn(-c4cc(O)n[s+]4[O-])c3c2)CC1 (stereo not shown) [Example 104] | 1000 to 5000 nM
40 | [O-][s+]1nc(O)cc1-n1ncc2ccc(-c3ccc(N4CCCC4)nc3)cc21 (stereo not shown) [Example 106] | 1000 to 5000 nM
41 | [O-][s+]1nc(O)cc1-n1ncc2c(-c3ccc(N4CCCC4)nc3)cccc21 (stereo not shown) [Example 107] | 1000 to 5000 nM
42 | N#Cc1ccc(-c2ccc3c(cnn3-c3cc(O)n[s+]3[O-])c2)nc1 (stereo not shown) [Example 108] | 1000 to 5000 nM
43 | COc1cc(-c2ccc3cnn(-c4cc(O)n[s+]4[O-])c3c2)ccn1 (stereo not shown) [Example 110] | 1000 to 5000 nM
44 | [O-][s+]1nc(O)cc1-n1ncc2ccc(-c3ccc(C4CC4)nc3)cc21 (stereo not shown) [Example 111] | 1000 to 5000 nM
45 | Cc1cncc(-c2ccc3cnn(-c4cc(O)n[s+]4[O-])c3c2)c1 (stereo not shown) [Example 113] | 5000 to 10000 nM
46 | [O-][s+]1nc(O)cc1-n1ncc2cc(-c3cccc(C(F)F)n3)ccc21 (stereo not shown) [Example 116] | < 1000 nM
47 | Cc1cccc(-c2ccc3c(cnn3-c3cc(O)n[s+]3[O-])c2)n1 (stereo not shown) [Example 117] | < 1000 nM
48 | Cc1cncc(-c2ccc3c(cnn3-c3cc(O)n[s+]3[O-])c2)n1 (stereo not shown) [Example 118] | 1000 to 5000 nM
49 | [O-][s+]1nc(O)cc1-n1ncc2cc(-c3ccc(F)cn3)ccc21 (stereo not shown) [Example 119] | 1000 to 5000 nM
50 | N#Cc1cccc(-c2ccc3c(cnn3-c3cc(O)n[s+]3[O-])c2)n1 (stereo not shown) [Example 120] | 1000 to 5000 nM
51 | [O-][s+]1nc(O)cc1-n1ncc2cc(-c3ccc(Cl)cn3)ccc21 (stereo not shown) [Example 121] | 1000 to 5000 nM
52 | [O-][s+]1nc(O)cc1-n1ncc2cc(-c3cnc(C4CC4)cn3)ccc21 (stereo not shown) [Example 122] | 1000 to 5000 nM
53 | COc1ncccc1-c1ccc2c(cnn2-c2cc(O)n[s+]2[O-])c1 (stereo not shown) [Example 124] | < 1000 nM

Row | Compound | EC50
54 | O=c1ccc(-c2ccc3c(cnn3-c3cc(O)n[s+]3[O-])c2)c[nH]1 (stereo not shown) [Example 125] | 1000 to 5000 nM
55 | COc1cccc(-c2ccc3c(cnn3-c3cc(O)n[s+]3[O-])c2)n1 (stereo not shown) [Example 129] | < 1000 nM
56 | [O-][s+]1nc(O)cc1-n1ncc2cc(-c3cccc(C(F)(F)F)n3)ccc21 (stereo not shown) [Example 130] | < 1000 nM
57 | [O-][s+]1nc(O)cc1-n1ncc2cc(-c3ccc(C(F)(F)F)cn3)ccc21 (stereo not shown) [Example 132] | < 1000 nM
58 | [O-][s+]1nc(O)cc1-n1ncc2cc(-c3cccc(N4CCCC4)n3)ccc21 (stereo not shown) [Example 138] | < 1000 nM
59 | [O-][s+]1nc(O)cc1-n1ncc2cc(-c3ccc(N4CCCC4)cn3)ccc21 (stereo not shown) [Example 139] | < 1000 nM
60 | [O-][s+]1nc(O)cc1-n1ncc2cc(-c3cnc(N4CCCCC4)cn3)ccc21 (stereo not shown) [Example 140] | < 1000 nM
61 | [O-][s+]1nc(O)cc1-n1ncc2cc(-c3cncc(N4CCCC4)n3)ccc21 (stereo not shown) [Example 141] | < 1000 nM
62 | [O-][s+]1nc(O)cc1-n1ncc2cc(-c3cnc(N4CCOCC4)cn3)ccc21 (stereo not shown) [Example 142] | 1000 to 5000 nM
63 | [O-][s+]1nc(O)cc1-n1ncc2cc(OCc3cccnc3)ccc21 (stereo not shown) [Example 144] | 1000 to 5000 nM
64 | [O-][s+]1nc(O)cc1-n1ncc2cc(Oc3ccccc3)ccc21 (stereo not shown) [Example 148] | 1000 to 5000 nM
65 | O=C(c1ccc(-c2ccc3c(cnn3-c3cc(O)n[s+]3[O-])c2)cn1)N1CCCC1 (stereo not shown) [Example 157] | 1000 to 5000 nM
66 | O=C(NC1CCCCC1)N1CCC(c2ccc3c(cnn3-c3cc(O)n[s+]3[O-])c2)CC1 (stereo not shown) [Example 159] | 5000 to 10000 nM
67 | [O-][s+]1nc(O)cc1-n1ncc2cc(-c3ccc(N4CCC5(COC5)C4)nc3)ccc21 (stereo not shown) [Example 161] | < 1000 nM
68 | COc1cc(-c2cccnc2)c2cnn(-c3cc(O)n[s+]3[O-])c2c1 (stereo not shown) [Example 166] | 1000 to 5000 nM
69 | COc1cc(-c2cncc(C)c2)c2cnn(-c3cc(O)n[s+]3[O-])c2c1 (stereo not shown) [Example 167] | 1000 to 5000 nM
70 | O=C(c1ccccc1)N1CCC(c2ccc3c(cnn3-c3cc(O)n[s+]3[O-])c2)CC1 (stereo not shown) [Example 168] | 5000 to 10000 nM
71 | CN(C(=O)N1CCC(c2ccc3c(cnn3-c3cc(O)n[s+]3[O-])c2)CC1)c1ccccc1 (stereo not shown) [Example 170] | 1000 to 5000 nM
72 | COc1cc(-c2cnc3c(c2)OCCN3C)c2cnn(-c3cc(O)n[s+]3[O-])c2c1 (stereo not shown) [Example 174] | 1000 to 5000 nM
73 | COc1cc(-c2ccc(N3CCCC3)nc2)c2cnn(-c3cc(O)n[s+]3[O-])c2c1 (stereo not shown) [Example 175] | < 1000 nM
74 | COc1cc(-c2ccnc(N3CCCCC3)c2)c2cnn(-c3cc(O)n[s+]3[O-])c2c1 (stereo not shown) [Example 176] | 1000 to 5000 nM
75 | COc1cc(Br)cc2c1cnn2-c1cc(O)n[s+]1[O-] (stereo not shown) [Example 177] | < 1000 nM
76 | COc1cc(-c2ccc(N3CCCCC3)nc2)c2cnn(-c3cc(O)n[s+]3[O-])c2c1 (stereo not shown) [Example 180] | < 1000 nM
77 | COc1cc(-c2ccnc(N3CCCC3)c2)c2cnn(-c3cc(O)n[s+]3[O-])c2c1 (stereo not shown) [Example 181] | 1000 to 5000 nM
78 | [O-][s+]1nc(O)cc1-n1ncc2cc(-c3ccc(N4CCC(F)(F)C4)nc3)ccc21 (stereo not shown) [Example 182] | < 1000 nM
79 | COc1cc(C2CC2)c2cnn(-c3cc(O)n[s+]3[O-])c2c1 (stereo not shown) [Example 183] | 1000 to 5000 nM
